Measurements as given in BigSolDB 2.1.

O=C(O)CCCCCC(=O)O
solubility (mole fraction)
Conditions | 288.15 K | 293.15 K | 298.15 K | 303.15 K | 308.15 K | 315.15 K | 318.15 K | 323.15 K
in acetic acid | 0.0648 | 0.0794 | 0.0964 | 0.119 | 0.14 | 0.169 | 0.199 | 0.232
in acetone | 0.0546 | 0.0752 | 0.118 | 0.146 | 0.174 | 0.202 | 0.224 | 0.246
in ethanol | 0.0677 | 0.0851 | 0.104 | 0.126 | 0.15 | 0.178 | 0.204 | 0.237
in ethyl acetate | 0.0233 | 0.0321 | 0.0517 | 0.0718 | 0.0802 | 0.0904 | 0.102 | 0.128

O=C(O)CCCC(=O)O
solubility (mole fraction)
Conditions | 288.15 K | 293.15 K | 298.15 K | 303.15 K | 308.15 K | 315.15 K | 318.15 K | 323.15 K
in acetic acid | 0.173 | 0.196 | 0.221 | 0.241 | 0.276 | 0.31 | 0.341 | 0.385
in acetone | 0.183 | 0.207 | 0.237 | 0.264 | 0.329 | 0.324 | 0.375 | 0.417
in ethanol | 0.136 | 0.158 | 0.176 | 0.201 | 0.228 | 0.274 | 0.322 | 0.35
in ethyl acetate | 0.0861 | 0.105 | 0.123 | 0.133 | 0.146 | 0.176 | 0.227 | 0.307

O=C(O)CCCCCCC(=O)O
solubility (mole fraction)
Conditions | 288.15 K | 293.15 K | 298.15 K | 303.15 K | 308.15 K | 315.15 K | 318.15 K | 323.15 K
in acetic acid | 0.0115 | 0.0145 | 0.0176 | 0.0216 | 0.0264 | 0.0329 | 0.0405 | 0.0501
in acetone | 0.0092 | 0.0127 | 0.0167 | 0.021 | 0.025 | 0.0301 | 0.0356 | 0.0405
in ethanol | 0.0208 | 0.0253 | 0.031 | 0.0375 | 0.0454 | 0.0553 | 0.0683 | 0.0847
in ethyl acetate | 0.00238 | 0.00302 | 0.00389 | 0.00513 | 0.00641 | 0.00819 | 0.00978 | 0.0118

O=C(O)CCCCCCCC(=O)O
solubility (mole fraction)
Conditions | 288.15 K | 293.15 K | 298.15 K | 303.15 K | 308.15 K | 315.15 K | 318.15 K | 323.15 K
in acetic acid | 0.0333 | 0.04 | 0.0524 | 0.0631 | 0.0761 | 0.0923 | 0.111 | 0.133
in acetone | 0.029 | 0.0331 | 0.04 | 0.0494 | 0.0634 | 0.0806 | 0.103 | 0.143
in ethanol | 0.0534 | 0.0601 | 0.0707 | 0.0851 | 0.102 | 0.124 | 0.15 | 0.185
in ethyl acetate | 0.00911 | 0.0113 | 0.0162 | 0.0232 | 0.0326 | 0.0524 | 0.0663 | 0.0964
